Positions of bridges follow the written chain, without caps; N, C: chain ends. Residues, ends and D or L forms follow the SMILES beside them.
Legend:
CCL2_HUMAN = CCL2_HUMAN (Homo sapiens, UniProt P13500); test: Neutralisation of chemokine induced THP-1 cell migration; format: cell-based; details: single concentration of peptide; EC80 CCL2 1.2 nM
Method: (§1) Table 1. Tick CKBPs described in PCT/GB2017/050563 and [17]. Tick peptide sequences isolated in yeast surface display fluorescent-activated cell sorting (FACS) screens using a labelled chemokine. Identity with Evasin-1, 4 or 3 was calculated using BLAST. Abbreviations: IXORI—Ixodes ricinus, RHISA—Rhipicephalus sanguineus, AMBMA—Amblyomma maculatum, AMBPA—Amblyomma parvum, AMBTR—Amblyomma triste, AMBAM—Amblyomma americanum, AMBCA—Amblyomma cajennense, RHIPU—Rhipicephalus pulchellus. Table 2A-C. Binding characteristics of tick CKBPs previously disclosed (PCT/GB2017/050563 and [17]). All members of the human chemokine family[164] are listed in column 1. Binding to human chemokines was determined for 14 tick CKBPs using biolayer interferometry (BLI) with calculated Kd shown as Molar (Moles/Litre). Binding data for 17 other novel tick CKBPs was assayed using yeast surface display[17,166],with positive binding results shown as “YES”. For biolayer interferometry, His-tagged purified tick CKBP was bound to a Ni-NINTA sensor on an OctetRed® 384 system, and then binding to each chemokine listed (with the exception of CCL25, CCL26, CXCL16, CXCL17, CXCL4L1, XCL2) was assayed in a cross-binding screen at a chemokine concentration of 300 nM as described. For those chemokines showing binding to a tick CKBP in the cross-binding screen, binding assays were repeated using different doses of chemokine. Association, equilibrium and dissociation data were analysed using Octet software to create corresponding fitted curves, and used to calculate Kd. For yeast surface display, (YSD) background fluorescence was controlled for by using either an empty vector or by omitting the chemokine (i.e. using streptavidin-Alexa647 alone). An arbitrary threshold of >3 fold over background mean fluorescence intensity was chosen to describe confirmed re-tests. Where binding was detected data are indicated as “YES”. […] For yeast surface display data, empty cells represent chemokines that were not tested. Binding data published in relation to previously described tick CKBPs (Evasins-1, 4 and 3) is also shown for comparison in each of FIGS. 2A-C, with the relevant data obtained from publications: [20-22,32]. Table 3: Neutralisation of human chemokines by tick CKBPs previously disclosed (PCT/GB2017/050563 and [17]). Neutralising activity was determined using a quantitative THP1 cell migration assay in a 96-well Boyden chamber with chemokine in the bottom chamber as described. Cells migrating through to the bottom chamber at 4 hours were counted using flow cytometry in a 96 well plate format. IC50 for neutralisation was determined at the chemokine EC80 dose as determined using a range of tick CKBP concentrations. Data was analysed using GraphPad Prism to determine IC50, which is shown as Molar (Moles/Litre). Empty cells represent experiments not done. Table 4—Other previously described tick CKBPs. Tick CKBPs that were also described in PCT/GB2017/050563 and Singh et al. are indicated in “Notes”. Table 5.—Novel tick CKBPs of the invention. Table 6. […] The peptide sequence prefix indicates the identity, and suffix indicate the tick species as follows: AMBCA, Amblyomma cajennense and IXORI, Ixodes ricinus. […] Individual yeast clones recovered from the library were re-tested using a FACS (fluorescence activated cell sorting), experiment. The binding of the peptide to the chemokine was assayed by measuring the percent (%), of yeast cells expressing the given peptide that exceeded a background threshold set by measuring the fluorescence of the yeast library pool treated with streptavidin-[…] alone. When more than one independent yeast clone was isolated for a given peptide-chemokine combination, the mean percent shift was calculated and reported in column 3.

CCL3_HUMAN = target: T1, CCL3_HUMAN (Homo sapiens, UniProt P10147); test: as above; format: cell-based; details: single concentration of peptide; EC80 CCL3 3.5 nM
T1 sequence (P10147 24-92): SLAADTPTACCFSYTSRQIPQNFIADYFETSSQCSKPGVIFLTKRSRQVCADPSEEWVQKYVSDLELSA
Method: as §1

CCL7_HUMAN = CCL7_HUMAN (Homo sapiens, UniProt P80098); test: as above; format: cell-based; details: single concentration of peptide; EC80 CCL7 7.2 nM
Method: as §1

CCL8_HUMAN = target: T2, CCL8_HUMAN (Homo sapiens, UniProt P80075); test: as above; format: cell-based; details: single concentration of peptide; EC80 CCL8 5.8 nM
T2 sequence (P80075 24-99): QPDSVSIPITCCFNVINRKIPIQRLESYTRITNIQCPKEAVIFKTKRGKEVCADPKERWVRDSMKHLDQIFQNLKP
Method: as §1

human CCL2-647 = target: T3, human CCL2-647 (Homo sapiens, UniProt P13500); test: Fluorescent chemokine binding to THP-1 cells (flow cytometry); format: cell-based; details: CCL2-647 1.2 nM, read-out: IC50 against CCL2-647 induced THP-1 cellular fluorescence
T3 construct: purchased Almac (UK)
Method: Data are shown as mean of two technical replicates. […] Curves were fitted with 4 parameters to estimate IC50.
Fluorescent chemokine (conjugated to AlexaFluor-647) binding to THP-1 cells results in an increase in the cellular fluorescence intensity, which is quantitatively measured using flow cytometry.
Fluorescent Chemokine/Receptor Blocking Assay CCL8-647 (2.5 nM, final) or […] (1.2 nM, final) was incubated for 30 minutes with varying doses of peptide (0-100 μM, final concentration) in 50 μL assay buffer (RPMI-1640+L-glutamine (4 mM)+10% heat treated fetal bovine serum+0.2% DMSO) at 37° C. This mixture was then added to 50,000 THP-1 cells in a 96-well v-bottomed plated to give a final volume of 100 μL, and everything incubated together for a further 30 minutes at 37° C. Following this time, the plate was centrifuged, the supernatant flicked off, and the cells resuspended in 150 μL ice cold PBSA. This was repeated twice more and the cells were finally resuspended in 150 μL ice cold PBSA. The median fluorescence intensity of 10,000 cells on the RL-1 channel was determined using an ATTUNE flow cytometer and plotted as function of peptide concentration and the data fitted to an inhibitor response curve with 4 parameters using Graph Pad prism 6. Experiments were performed as two technical and three biological replicates.

CXCL9_HUMAN = target: T4, CXCL9_HUMAN (Homo sapiens, UniProt Q07325); test: Yeast surface display (YSD) FACS binding; details: FACS re-test; mean percent shift where several clones
T4 sequence (Q07325 23-125): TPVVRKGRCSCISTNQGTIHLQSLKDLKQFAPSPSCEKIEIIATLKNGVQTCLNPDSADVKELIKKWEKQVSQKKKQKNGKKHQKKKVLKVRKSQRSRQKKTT
Method: Table 1. Tick CKBPs described in PCT/GB2017/050563 and [17]. Tick peptide sequences isolated in yeast surface display fluorescent-activated cell sorting (FACS) screens using a labelled chemokine. Identity with Evasin-1, 4 or 3 was calculated using BLAST. Abbreviations: IXORI—Ixodes ricinus, RHISA—Rhipicephalus sanguineus, AMBMA—Amblyomma maculatum, AMBPA—Amblyomma parvum, AMBTR—Amblyomma triste, AMBAM—Amblyomma americanum, AMBCA—Amblyomma cajennense, RHIPU—Rhipicephalus pulchellus. Table 2A-C. Binding characteristics of tick CKBPs previously disclosed (PCT/GB2017/050563 and [17]). All members of the human chemokine family[164] are listed in column 1. Binding to human chemokines was determined for 14 tick CKBPs using biolayer interferometry (BLI) with calculated Kd shown as Molar (Moles/Litre). […] Association, equilibrium and dissociation data were analysed using Octet software to create corresponding fitted curves, and used to calculate Kd. For yeast surface display, (YSD) background fluorescence was controlled for by using either an empty vector or by omitting the chemokine (i.e. using streptavidin-Alexa647 alone). An arbitrary threshold of >3 fold over background mean fluorescence intensity was chosen to describe confirmed re-tests. Where binding was detected data are indicated as “YES”. […] Data was analysed using GraphPad Prism to determine IC50, which is shown as Molar (Moles/Litre). […]

Sequence of CCL2_HUMAN (P13500 24-99): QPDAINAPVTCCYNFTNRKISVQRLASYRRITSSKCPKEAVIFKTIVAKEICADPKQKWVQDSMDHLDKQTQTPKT
T3 sequence (P13500 24-99): as above
Sequence of CCL7_HUMAN (P80098 24-99): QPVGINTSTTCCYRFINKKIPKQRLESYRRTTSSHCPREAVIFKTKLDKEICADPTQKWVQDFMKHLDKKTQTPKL

Row | Molecule | Effect on CCL2-induced THP-1 cell migration (CCL2_HUMAN) | Effect on CCL3-induced THP-1 cell migration (CCL3_HUMAN) | Effect on CCL7-induced THP-1 cell migration (CCL7_HUMAN) | Effect on CCL8-induced THP-1 cell migration (CCL8_HUMAN) | IC50 (human CCL2-647) | Chemokines bound in yeast surface display and % cells over threshold fluorescence: CXCL9_HUMAN (CXCL9_HUMAN)
1 | CC(C)[C@@H]1NC(=O)[C@@H]2CCCN2C(=O)[C@H](CCCCN)NC(=O)[C@H](Cc2ccccc2)NC(=O)[C@H](Cc2ccccc2)NC(=O)[C@H](CC(=O)O)NC(=O)[C@H](CCC(=O)O)NC(=O)[C@H](Cc2ccc(O)cc2)NC(=O)[C@H](CC(=O)O)NC(=O)[C@H](CCC(=O)O)NC(=O)[C@H](CC(=O)O)NC(=O)[C@H](CCC(=O)O)NC(=O)[C@H](Cc2ccc(O)cc2)NC(=O)CSC[C@@H](C(=O)N[C@@H](Cc2ccc(O)cc2)C(=O)N[C@@H](Cc2ccccc2)C(N)=O)NC(=O)[C@H]([C@@H](C)O)NC1=O [BK1.2] ({CH2CO}-YEDEDYEDFFKPVTCYF-NH2; thioether N-15) | stronger effect | significantly reduced | stronger effect | reduced CCL8 induced cell migration to baseline levels | 6.3 µM | 
2 | P1124_IXORI: novel CXC-binding tick CKBP, Ixodes ricinus (DSKGTSDSQDSTKSIKVDFCETNCTKTDGGWTGCTGDCICVSVGDSIEGRCMDFG; listed as Ixodes ricinus) |  |  |  |  |  | CXCL9_HUMAN 31%
